One molecule from patent publication US20120082658A1, “Methods for the Treatment of Allergic Diseases” (VentiRx Pharmaceuticals, Inc., priority 2010, published 2012) can be followed below.

This assay has as its target T1, human TLR8 (Homo sapiens, UniProt Q9NR97).
T1 construct: expressed in transfected cells; host or cells: HEK293
T1 sequence (Q9NR97 27-1041): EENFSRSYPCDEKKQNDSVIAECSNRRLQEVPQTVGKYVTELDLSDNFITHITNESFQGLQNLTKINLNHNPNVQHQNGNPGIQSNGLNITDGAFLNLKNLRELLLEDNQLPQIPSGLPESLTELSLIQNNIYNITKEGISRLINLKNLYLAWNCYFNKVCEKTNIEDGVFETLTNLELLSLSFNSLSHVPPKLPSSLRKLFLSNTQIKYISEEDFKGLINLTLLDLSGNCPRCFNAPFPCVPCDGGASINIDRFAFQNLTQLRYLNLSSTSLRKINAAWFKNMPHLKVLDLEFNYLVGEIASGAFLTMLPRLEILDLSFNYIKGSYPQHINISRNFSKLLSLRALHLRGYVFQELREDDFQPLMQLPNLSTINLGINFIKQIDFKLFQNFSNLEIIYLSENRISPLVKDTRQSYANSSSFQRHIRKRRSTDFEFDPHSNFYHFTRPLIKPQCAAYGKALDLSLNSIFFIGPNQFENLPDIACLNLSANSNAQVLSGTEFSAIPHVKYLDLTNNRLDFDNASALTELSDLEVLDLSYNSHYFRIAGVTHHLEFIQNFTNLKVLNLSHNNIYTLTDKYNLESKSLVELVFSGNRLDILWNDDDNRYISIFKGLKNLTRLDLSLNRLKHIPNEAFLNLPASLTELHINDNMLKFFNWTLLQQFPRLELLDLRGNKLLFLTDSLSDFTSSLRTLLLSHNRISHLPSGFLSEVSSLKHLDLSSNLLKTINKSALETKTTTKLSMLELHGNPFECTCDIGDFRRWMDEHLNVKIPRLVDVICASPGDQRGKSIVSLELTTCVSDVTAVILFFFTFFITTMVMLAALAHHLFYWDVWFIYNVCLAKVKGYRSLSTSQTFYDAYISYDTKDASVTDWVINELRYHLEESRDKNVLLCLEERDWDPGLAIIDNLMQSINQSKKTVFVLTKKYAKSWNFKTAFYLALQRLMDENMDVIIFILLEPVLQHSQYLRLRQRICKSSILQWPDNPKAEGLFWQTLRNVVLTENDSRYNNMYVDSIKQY
As to the kind of experiment: HEK293 cells transfected with human TLR8, NF-κB driven reporter. Type of assay: cell-based. As to conditions: read-out: half maximal effective concentration (EC50), activation of TLR8. How it is done: FIG. 8 is two graphs depicting the potency and selectivity of VTX-378 for TLR8. The half-maximal effective concentration (EC50) for VTX-378 activation of TLR8 and TLR7 was assessed in peripheral blood mononuclear cells (PBMCs) by the amount of secreted TNFα (A) and by the activity of NF-κB (B) from 15 healthy donors and also in HEK293 cells transfected with various human TLRs.
Preclinical studies were performed with VTX-378, the active pharmaceutical ingredient in VTX-1463. The specificity of VTX-378 for human TLR8 relative to other TLRs was assessed in transfected Human Embryonic Kidney 293 (HEK293) cells engineered to express individual TLRs (2-9) via transfection, and assessed using an NF-κB driven reporter system. […] The pharmacologic effects of VTX-378 were characterized in vitro using isolated human peripheral blood mononuclear cells (PBMCs).

In the case of `CCCN(CCC)C(=O)C1=Cc2ccc(-c3ccc(C(=O)N4CCCC4)cc3)cc2N=C(N)C1` [VTX-378], the EC50 is approximately 100 nM.
